Laboratory results from PubChem BioAssay AID977605 (Broad Institute, 2014).
Calls of active or inactive are those of the source.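 The calls were made as follows: active = fitted curve reaches 40% activation below the top valid tested dose, in every test run; inconclusive = test runs disagree on the call; inactive = the rest, including effects opposite to the expected direction.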

Assay: E-selectin inducers in HUVECs, dose response, imaging, HUVEC, cherry-picked samples (AID 977605);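 also: signal is the share of imaged cells scored positive for E-selectin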
Conditions: HUVEC E-selectin immunostaining, at 10 µM (top of the series), percent of TNF-alpha response over vehicle

Structure (SMILES)	activation
C[C@@H]1CN([C@H](C)CO)C(=O)c2c(c3ccccc3n2C)-c2ccccc2CO[C@@H]1CN(C)Cc1ccccc1C(F)(F)F	0.002% (inactive)

Same assay, conditions: HUVEC E-selectin immunostaining, at 19.5 µM (top of the series)

Structure (SMILES)	activation
Cc1ccc(-c2nc3ccccc3c(=O)n2-c2cccc(O)c2)cc1	0.249% (inactive)

Same assay, conditions: HUVEC E-selectin immunostaining, at 19.5 µM (top of the series), percent of TNF-alpha response over vehicle

Structure (SMILES)	activation
C[C@@H]1CN([C@H](C)CO)C(=O)Cc2cc(NC(=O)CCN3CCOCC3)ccc2O[C@H]1CN(C)S(C)(=O)=O	0.606% (inactive)
Cc1noc(C)c1NC(=O)Nc1cccc2c1O[C@H](CN(C)CC1CCCCC1)[C@H](C)CN([C@@H](C)CO)C2=O	0.049% (inactive)
CC(C)(C)c1ccc(C(=O)Nc2ccc3c(c2)C(=O)NC3=O)cc1	0.042% (inactive)
C[C@@H]1CN([C@H](C)CO)C(=O)c2cccc(NS(C)(=O)=O)c2O[C@H]1CN(C)Cc1ccncc1	1.77% (inactive)
Cc1[nH]c(C)c(S(=O)(=O)N2CCCCC2)c1C(=O)N1CCCC1	-0.044% (inactive)
CC(C)NC(=O)Nc1cccc2c1O[C@@H](CN(C)Cc1ccc(C(F)(F)F)cc1)[C@H](C)CN([C@H](C)CO)C2=O	-0.054% (inactive)
C[C@H]1CN([C@@H](C)CO)C(=O)c2cc(NC(=O)NC3CCCCC3)ccc2O[C@@H]1CN(C)S(=O)(=O)c1ccc(Cl)cc1	2.58% (inactive)
Cc1noc(C)c1S(=O)(=O)N(C)C[C@H]1Oc2ccc(NC(=O)C3CC3)cc2CC(=O)N([C@@H](C)CO)C[C@@H]1C	32.2% (inactive)
C[C@@H]1CN([C@@H](C)CO)C(=O)c2cc(NC(=O)Nc3ccc(C(F)(F)F)cc3)ccc2O[C@H]1CN(C)S(=O)(=O)c1ccccc1	-0.17% (inactive)
COc1ccc2[nH]c(=O)c(CN(c3ccccc3)S(=O)(=O)c3ccccc3)cc2c1	3% (inactive)
C[C@H]1CN([C@@H](C)CO)C(=O)c2cc(NC(=O)CCN3CCOCC3)ccc2O[C@H]1CN(C)S(=O)(=O)c1ccc(Cl)cc1	-0.234% (inactive)
CCOC(=O)c1ccc(N(C(=O)c2ccco2)C(C(=O)NC2CCCCC2)c2ccncc2)cc1 (centres undefined)	-0.129% (inactive)
O=C(CN(Cc1ccc(F)cc1)C(=O)CNS(=O)(=O)c1ccc(F)cc1)NCc1ccco1	-0.246% (inactive)
COc1ccc(S(=O)(=O)Nc2ccc3c(c2)C(=O)N([C@@H](C)CO)C[C@@H](C)[C@@H](CN(C)Cc2ccc(C(=O)Nc4ccccc4N)cc2)O3)cc1	1.66% (inactive)
C[C@H](CO)N1C[C@H](C)[C@@H](CN(C)Cc2ccc(Oc3ccccc3)cc2)Oc2ccc(NC(=O)Nc3ccc(C(F)(F)F)cc3)cc2CC1=O	-0.23% (inactive)
CC(C)c1ccc(C(=O)Nc2nnc(S(=O)(=O)N3CCCCC3)s2)cc1	-0.055% (inactive)

Structure (SMILES)	activation
C[C@H]1CN([C@@H](C)CO)C(=O)c2cccc(NC(=O)c3ccncc3)c2O[C@H]1CN(C)Cc1ccc(C(=O)Nc2ccccc2N)cc1	0.016% (inactive)
CCC(=O)Oc1cccc(C(=O)Nc2cccc(NC(=O)c3ccco3)c2)c1	-0.083% (inactive)
COc1ccc(NC(=O)Nc2ccc3c(c2)C(=O)N([C@H](C)CO)C[C@H](C)[C@@H](CN(C)Cc2ccncc2)O3)cc1	4.31% (inactive)
COc1ccc(S(=O)(=O)Nc2ccc3c(c2)C(=O)N([C@@H](C)CO)C[C@@H](C)[C@@H](CN(C)C(=O)Nc2cccc4ccccc24)O3)cc1	-0.103% (inactive)
CC(C)NC(=O)N(C)C[C@H]1Oc2ccc(NC(=O)CCC(F)(F)F)cc2CC(=O)N([C@H](C)CO)C[C@@H]1C	-0.115% (inactive)
O=S(=O)(Nc1cccc2[nH]ncc12)c1cccs1	-0.069% (inactive)
OC(CSc1ccc(F)cc1)CN1CCN(c2ccccc2)CC1 (centres undefined)	-0.165% (inactive)
COc1ccc(C(=O)N2CC(c3ccccc3)CC2=O)cc1 (centres undefined)	-0.124% (inactive)
C[C@@H]1CN([C@H](C)CO)C(=O)c2cccc(NC(=O)c3ccc(-c4nccs4)cc3)c2O[C@H]1CN(C)Cc1ccc(Oc2ccccc2)cc1	9.5% (inactive)
COc1ccc(CCNS(=O)(=O)c2ccc3c(c2)NC(=O)CS3)cc1OC	-0.024% (inactive)
CC(C)(CN1CCCC1)NS(=O)(=O)c1ccc(Cl)cc1	-0.279% (inactive)
Cc1noc(C)c1NC(=O)Nc1ccc2c(c1)CC(=O)N([C@H](C)CO)C[C@@H](C)[C@H](CN(C)C(=O)Nc1ccc(F)cc1)O2	-0.18% (inactive)
C[C@H]1CN([C@@H](C)CO)C(=O)c2cc(NC(=O)Nc3ccc(F)cc3)ccc2O[C@H]1CN(C)S(C)(=O)=O	4.69% (inactive)
COc1ccc(S(=O)(=O)N(C)C[C@H]2Oc3ccc(NC(=O)c4ccncc4)cc3C(=O)N([C@H](C)CO)C[C@@H]2C)cc1	-0.104% (inactive)
C[C@@H]1CN([C@H](C)CO)C(=O)c2cccc(NC(=O)Nc3ccc(F)cc3)c2O[C@@H]1CN(C)S(=O)(=O)c1cn(C)cn1	-0.066% (inactive)
Cc1cccc(CC(=O)c2c[nH]c3ccccc23)c1	-0.07% (inactive)
